Source: patent publication US7074789B2, “Kinase inhibitors” (Amgen Inc., priority 1999, dated 2006)

Experiments:
Type in all cases: biochemical
Lck = biological target: T1, Lck (Homo sapiens, UniProt P06239); test: Kinase inhibition assay (33P transfer), Lck; settings: read-out: Lck-1
T1 construct: Kinases are expressed as either kinase domains or full length constructs; made in house
Summary of the method: (§1)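 Kinase domain or full-length constructs, GST- or polyHis-tagged, expressed in E. coli or baculovirus-High Five cells, sometimes with regulatory polypeptides. Activity measured as 33PO4 transfer from ATP to plate-bound poly(Glu,Tyr) 4:1 or poly(Arg,Ser) 3:1; after incubation, plates washed with 0.5% phosphoric acid and counted by liquid scintillation.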

Lyn = biological target: T2, Lyn (Homo sapiens, UniProt P07948); test: Kinase inhibition assay (33P transfer), Lyn; settings: Table 6, Lyn-1 kinase inhibition class
T2 construct: Kinases are expressed as either kinase domains or full length constructs; made in house
Summary of the method: (§2)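 Kinase domains or full-length enzymes, GST- or polyHis-tagged, were expressed in E. coli or baculovirus High Five cells and affinity-purified. Transfer of 33PO4 from ATP onto plate-bound poly(Glu,Tyr) 4:1 or poly(Arg,Ser) 3:1 was counted by liquid scintillation after a 0.5% phosphoric acid wash. IC50 = concentration halving incorporation.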

Src = biological target: T3, Src (Homo sapiens, UniProt P12931); test: Kinase inhibition assay (33P transfer), Src; settings: Table 6, Src-1 kinase inhibition class
T3 construct: Kinases are expressed as either kinase domains or full length constructs; made in house
Summary of the method: as §2

Fyn = biological target: T4, Fyn (Homo sapiens, UniProt P06241); test: Kinase inhibition assay (33P transfer), Fyn; settings: read-out: Fyn-1
T4 construct: Kinases are expressed as either kinase domains or full length constructs; made in house
Summary of the method: as §2

Zap-70 = biological target: T5, Zap-70 (Homo sapiens, UniProt P43403); test: Kinase inhibition assay (33P transfer), Zap-70; settings: read-out: Zap-1
T5 construct: Kinases are expressed as either kinase domains or full length constructs; made in house
T5 sequence (P43403 1-619): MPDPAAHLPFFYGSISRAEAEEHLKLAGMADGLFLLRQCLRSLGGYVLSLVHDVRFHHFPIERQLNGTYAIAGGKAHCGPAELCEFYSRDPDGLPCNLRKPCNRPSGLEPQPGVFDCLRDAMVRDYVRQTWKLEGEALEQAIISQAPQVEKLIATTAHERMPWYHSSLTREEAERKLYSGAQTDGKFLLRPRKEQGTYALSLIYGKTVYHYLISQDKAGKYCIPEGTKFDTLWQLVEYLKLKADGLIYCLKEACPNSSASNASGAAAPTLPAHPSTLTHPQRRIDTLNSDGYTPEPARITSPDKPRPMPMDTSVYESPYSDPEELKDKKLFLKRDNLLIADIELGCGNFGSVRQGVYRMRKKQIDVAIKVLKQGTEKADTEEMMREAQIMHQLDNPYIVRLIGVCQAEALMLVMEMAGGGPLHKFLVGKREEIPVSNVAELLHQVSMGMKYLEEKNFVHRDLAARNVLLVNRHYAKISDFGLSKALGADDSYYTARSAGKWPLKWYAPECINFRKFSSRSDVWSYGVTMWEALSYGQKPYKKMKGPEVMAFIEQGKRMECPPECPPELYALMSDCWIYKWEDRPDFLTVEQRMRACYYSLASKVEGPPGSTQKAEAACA
Summary of the method: as §1

Itk = biological target: T6, Itk (Homo sapiens, UniProt Q08881); test: Kinase inhibition assay (33P transfer), Itk; settings: read-out: Itk-1
T6 construct: Kinases are expressed as either kinase domains or full length constructs; made in house
T6 sequence (Q08881 1-620): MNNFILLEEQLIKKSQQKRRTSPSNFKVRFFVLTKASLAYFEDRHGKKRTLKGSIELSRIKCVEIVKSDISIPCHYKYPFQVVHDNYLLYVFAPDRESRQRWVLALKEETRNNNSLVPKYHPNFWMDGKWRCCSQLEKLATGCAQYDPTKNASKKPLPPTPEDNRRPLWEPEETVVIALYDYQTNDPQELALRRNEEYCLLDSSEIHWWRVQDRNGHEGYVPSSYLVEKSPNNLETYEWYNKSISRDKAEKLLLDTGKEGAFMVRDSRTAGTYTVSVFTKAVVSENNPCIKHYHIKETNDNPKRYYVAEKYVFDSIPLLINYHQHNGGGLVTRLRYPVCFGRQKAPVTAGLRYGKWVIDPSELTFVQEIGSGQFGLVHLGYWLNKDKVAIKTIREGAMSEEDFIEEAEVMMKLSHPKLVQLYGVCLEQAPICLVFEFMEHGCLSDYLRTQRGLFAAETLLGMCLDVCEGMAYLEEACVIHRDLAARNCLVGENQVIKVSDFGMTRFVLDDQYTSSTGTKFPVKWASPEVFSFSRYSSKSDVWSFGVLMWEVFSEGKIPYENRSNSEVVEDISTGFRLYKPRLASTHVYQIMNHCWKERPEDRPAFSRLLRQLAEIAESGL
Summary of the method: as §2

EGFR = biological target: T7, EGFR (Homo sapiens, UniProt P00533); test: Kinase inhibition assay (33P transfer), EGFR; settings: Table 2, kinase inhibition class; read-out: EGFR-1
T7 construct: Kinases are expressed as either kinase domains or full length constructs; made in house
Summary of the method: as §2

ErbB2 = biological target: T8, ErbB2 (Homo sapiens, UniProt P04626); test: Kinase inhibition assay (33P transfer), ErbB2; settings: read-out: ErbB2-2
T8 construct: Kinases are expressed as either kinase domains or full length constructs; made in house
Summary of the method: as §2

Kdr = biological target: T9, Kdr (Homo sapiens, UniProt P35968); test: Kinase inhibition assay (33P transfer), Kdr; settings: read-out: KDR-1
T9 construct: Kinases are expressed as either kinase domains or full length constructs; made in house
Summary of the method: as §1

Flt-1 = biological target: T10, Flt-1 (Homo sapiens, UniProt P17948); test: Kinase inhibition assay (33P transfer), Flt-1
T10 construct: Kinases are expressed as either kinase domains or full length constructs; made in house
Summary of the method: as §2

Tek = biological target: T11, Tek (Homo sapiens, UniProt Q02763); test: Kinase inhibition assay (33P transfer), Tek; settings: read-out: Tek-1
T11 construct: Kinases are expressed as either kinase domains or full length constructs; made in house
Summary of the method: as §2

c-Met = biological target: T12, c-Met (Homo sapiens, UniProt P08581); test: Kinase inhibition assay (33P transfer), c-Met; settings: Table 2, kinase inhibition class; read-out: Met-1
T12 construct: Kinases are expressed as either kinase domains or full length constructs; made in house
Summary of the method: as §2

AKT = biological target: T13, AKT (Homo sapiens, UniProt Q9Y243); test: Kinase inhibition assay (33P transfer), AKT; settings: Table 2, kinase inhibition class; read-out: AKT3-1
T13 construct: Kinases are expressed as either kinase domains or full length constructs; made in house
Summary of the method: as §1

IGFR-1 = biological target: T14, IGFR-1 (Homo sapiens, UniProt P08069); test: Kinase inhibition assay, IGFR-1 (Table 2); settings: Table 2, kinase inhibition class
T14 construct: Kinases are expressed as either kinase domains or full length constructs; made in house

PDGFRB = biological target: T15, PDGFRB (Homo sapiens, UniProt P09619); test: Kinase inhibition assay (33P transfer), PDGFRB; settings: read-out: PDGFRB-1
T15 construct: Kinases are expressed as either kinase domains or full length constructs; made in house

Hck-1 = biological target: T16, Hck-1 (Homo sapiens, UniProt P08631); test: Kinase inhibition assay (33P transfer), Hck; settings: Table 6, Hck-1 kinase inhibition class
T16 construct: Kinases are expressed as either kinase domains or full length constructs; made in house

ErbB4 = biological target: T17, ErbB4 (Homo sapiens, UniProt Q15303); test: Kinase inhibition assay (33P transfer), ErbB4; settings: read-out: ErbB4-1
T17 construct: Kinases are expressed as either kinase domains or full length constructs; made in house

Ret-1 = biological target: T18, Ret-1 (Homo sapiens, UniProt P07949); test: Kinase inhibition assay (33P transfer), Ret; settings: Table 6, Ret-1 kinase inhibition class
T18 construct: Kinases are expressed as either kinase domains or full length constructs; made in house

FGFR1 = biological target: T19, FGFR1 (Homo sapiens, UniProt P11362); test: Kinase inhibition assay (33P transfer), FGFR1; settings: read-out: FGFR1-1
T19 construct: Kinases are expressed as either kinase domains or full length constructs; made in house

T13 sequence (Q9Y243 whole entry, the tested form may be a part): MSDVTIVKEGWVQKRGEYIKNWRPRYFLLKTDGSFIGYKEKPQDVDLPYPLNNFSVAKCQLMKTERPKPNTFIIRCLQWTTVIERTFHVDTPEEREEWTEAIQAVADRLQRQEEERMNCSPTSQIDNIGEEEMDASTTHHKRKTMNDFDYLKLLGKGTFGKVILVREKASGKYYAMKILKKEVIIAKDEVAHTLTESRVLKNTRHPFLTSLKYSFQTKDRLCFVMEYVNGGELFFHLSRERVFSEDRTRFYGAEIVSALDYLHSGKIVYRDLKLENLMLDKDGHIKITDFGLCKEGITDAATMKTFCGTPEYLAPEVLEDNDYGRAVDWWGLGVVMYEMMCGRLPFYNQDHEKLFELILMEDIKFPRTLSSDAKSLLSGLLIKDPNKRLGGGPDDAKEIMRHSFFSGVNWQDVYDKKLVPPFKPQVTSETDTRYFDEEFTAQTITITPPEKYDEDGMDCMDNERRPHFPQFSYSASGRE
T16 sequence (P08631 whole entry, the tested form may be a part): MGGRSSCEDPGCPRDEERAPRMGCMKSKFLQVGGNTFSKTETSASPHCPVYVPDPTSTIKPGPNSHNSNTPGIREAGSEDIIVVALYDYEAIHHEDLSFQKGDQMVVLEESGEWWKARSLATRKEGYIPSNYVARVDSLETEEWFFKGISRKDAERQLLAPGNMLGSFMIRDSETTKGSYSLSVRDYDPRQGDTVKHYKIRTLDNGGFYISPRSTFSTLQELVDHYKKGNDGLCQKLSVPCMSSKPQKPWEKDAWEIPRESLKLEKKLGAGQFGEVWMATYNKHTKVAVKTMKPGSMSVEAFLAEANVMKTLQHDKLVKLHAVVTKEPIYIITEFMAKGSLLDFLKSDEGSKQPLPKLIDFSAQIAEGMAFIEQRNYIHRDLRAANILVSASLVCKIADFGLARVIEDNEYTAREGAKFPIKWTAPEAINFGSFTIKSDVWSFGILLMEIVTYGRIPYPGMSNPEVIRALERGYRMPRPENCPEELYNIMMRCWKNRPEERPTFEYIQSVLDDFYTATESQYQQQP
T17 sequence (Q15303 26-1308, species assumed): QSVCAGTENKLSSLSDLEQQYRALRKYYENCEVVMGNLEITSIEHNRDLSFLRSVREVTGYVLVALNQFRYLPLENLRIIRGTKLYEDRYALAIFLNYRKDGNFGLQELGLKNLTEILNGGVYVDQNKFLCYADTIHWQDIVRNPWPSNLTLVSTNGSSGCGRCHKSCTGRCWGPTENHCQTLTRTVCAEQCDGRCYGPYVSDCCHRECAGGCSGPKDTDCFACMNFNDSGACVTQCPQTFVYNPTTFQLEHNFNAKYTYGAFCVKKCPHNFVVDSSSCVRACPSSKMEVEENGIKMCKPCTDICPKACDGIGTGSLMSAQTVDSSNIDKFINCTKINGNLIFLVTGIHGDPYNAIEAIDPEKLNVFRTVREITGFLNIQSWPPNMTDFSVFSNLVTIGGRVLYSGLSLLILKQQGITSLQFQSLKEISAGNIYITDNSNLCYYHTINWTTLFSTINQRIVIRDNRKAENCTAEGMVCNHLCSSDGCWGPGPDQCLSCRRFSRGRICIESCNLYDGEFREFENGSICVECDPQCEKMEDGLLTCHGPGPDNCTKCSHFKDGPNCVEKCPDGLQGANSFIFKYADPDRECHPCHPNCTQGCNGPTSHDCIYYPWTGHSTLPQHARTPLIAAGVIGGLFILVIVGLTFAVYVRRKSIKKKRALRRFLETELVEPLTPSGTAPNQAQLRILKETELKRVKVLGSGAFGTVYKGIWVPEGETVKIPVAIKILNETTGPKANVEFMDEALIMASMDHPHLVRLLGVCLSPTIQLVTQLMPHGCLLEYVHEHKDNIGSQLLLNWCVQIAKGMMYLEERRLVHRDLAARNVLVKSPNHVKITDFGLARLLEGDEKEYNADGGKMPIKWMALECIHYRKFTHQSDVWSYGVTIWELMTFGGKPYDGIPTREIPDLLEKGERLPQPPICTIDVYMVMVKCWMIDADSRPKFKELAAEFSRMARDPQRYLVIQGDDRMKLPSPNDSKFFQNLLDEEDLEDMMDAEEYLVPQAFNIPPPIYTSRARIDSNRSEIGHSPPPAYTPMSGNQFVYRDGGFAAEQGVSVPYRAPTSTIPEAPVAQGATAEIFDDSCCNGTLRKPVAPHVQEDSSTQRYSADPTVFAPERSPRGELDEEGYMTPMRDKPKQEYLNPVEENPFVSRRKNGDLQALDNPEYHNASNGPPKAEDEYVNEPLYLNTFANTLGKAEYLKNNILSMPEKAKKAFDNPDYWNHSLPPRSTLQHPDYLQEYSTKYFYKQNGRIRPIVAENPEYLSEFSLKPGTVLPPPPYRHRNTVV
T15 sequence (P09619 33-1106, species assumed): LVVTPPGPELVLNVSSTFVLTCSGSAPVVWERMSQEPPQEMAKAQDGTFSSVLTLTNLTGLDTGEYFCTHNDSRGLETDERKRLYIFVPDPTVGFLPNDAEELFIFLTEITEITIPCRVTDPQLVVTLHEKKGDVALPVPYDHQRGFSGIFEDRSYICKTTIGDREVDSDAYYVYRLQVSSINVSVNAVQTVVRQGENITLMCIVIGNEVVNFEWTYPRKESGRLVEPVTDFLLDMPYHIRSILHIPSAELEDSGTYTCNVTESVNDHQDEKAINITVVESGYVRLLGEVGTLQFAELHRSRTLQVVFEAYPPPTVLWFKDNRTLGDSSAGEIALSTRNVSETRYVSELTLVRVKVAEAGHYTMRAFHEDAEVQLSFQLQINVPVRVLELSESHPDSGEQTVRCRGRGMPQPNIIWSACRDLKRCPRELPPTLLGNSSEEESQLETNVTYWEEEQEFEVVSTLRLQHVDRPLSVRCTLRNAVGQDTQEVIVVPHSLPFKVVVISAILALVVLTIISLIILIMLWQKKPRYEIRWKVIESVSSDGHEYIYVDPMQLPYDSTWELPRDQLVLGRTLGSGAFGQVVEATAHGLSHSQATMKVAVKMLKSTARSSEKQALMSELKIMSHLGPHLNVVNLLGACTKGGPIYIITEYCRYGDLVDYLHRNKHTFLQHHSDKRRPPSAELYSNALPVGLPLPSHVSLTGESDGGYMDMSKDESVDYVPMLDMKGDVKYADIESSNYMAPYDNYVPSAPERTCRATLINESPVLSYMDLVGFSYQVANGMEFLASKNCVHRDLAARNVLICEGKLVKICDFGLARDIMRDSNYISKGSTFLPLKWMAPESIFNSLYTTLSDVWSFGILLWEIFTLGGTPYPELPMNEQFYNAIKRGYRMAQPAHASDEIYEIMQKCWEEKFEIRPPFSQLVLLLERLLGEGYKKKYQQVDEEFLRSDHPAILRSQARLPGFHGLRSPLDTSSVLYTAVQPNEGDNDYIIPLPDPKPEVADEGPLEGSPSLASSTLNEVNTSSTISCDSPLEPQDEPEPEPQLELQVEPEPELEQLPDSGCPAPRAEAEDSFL
T7 sequence (P00533 25-1210, species assumed): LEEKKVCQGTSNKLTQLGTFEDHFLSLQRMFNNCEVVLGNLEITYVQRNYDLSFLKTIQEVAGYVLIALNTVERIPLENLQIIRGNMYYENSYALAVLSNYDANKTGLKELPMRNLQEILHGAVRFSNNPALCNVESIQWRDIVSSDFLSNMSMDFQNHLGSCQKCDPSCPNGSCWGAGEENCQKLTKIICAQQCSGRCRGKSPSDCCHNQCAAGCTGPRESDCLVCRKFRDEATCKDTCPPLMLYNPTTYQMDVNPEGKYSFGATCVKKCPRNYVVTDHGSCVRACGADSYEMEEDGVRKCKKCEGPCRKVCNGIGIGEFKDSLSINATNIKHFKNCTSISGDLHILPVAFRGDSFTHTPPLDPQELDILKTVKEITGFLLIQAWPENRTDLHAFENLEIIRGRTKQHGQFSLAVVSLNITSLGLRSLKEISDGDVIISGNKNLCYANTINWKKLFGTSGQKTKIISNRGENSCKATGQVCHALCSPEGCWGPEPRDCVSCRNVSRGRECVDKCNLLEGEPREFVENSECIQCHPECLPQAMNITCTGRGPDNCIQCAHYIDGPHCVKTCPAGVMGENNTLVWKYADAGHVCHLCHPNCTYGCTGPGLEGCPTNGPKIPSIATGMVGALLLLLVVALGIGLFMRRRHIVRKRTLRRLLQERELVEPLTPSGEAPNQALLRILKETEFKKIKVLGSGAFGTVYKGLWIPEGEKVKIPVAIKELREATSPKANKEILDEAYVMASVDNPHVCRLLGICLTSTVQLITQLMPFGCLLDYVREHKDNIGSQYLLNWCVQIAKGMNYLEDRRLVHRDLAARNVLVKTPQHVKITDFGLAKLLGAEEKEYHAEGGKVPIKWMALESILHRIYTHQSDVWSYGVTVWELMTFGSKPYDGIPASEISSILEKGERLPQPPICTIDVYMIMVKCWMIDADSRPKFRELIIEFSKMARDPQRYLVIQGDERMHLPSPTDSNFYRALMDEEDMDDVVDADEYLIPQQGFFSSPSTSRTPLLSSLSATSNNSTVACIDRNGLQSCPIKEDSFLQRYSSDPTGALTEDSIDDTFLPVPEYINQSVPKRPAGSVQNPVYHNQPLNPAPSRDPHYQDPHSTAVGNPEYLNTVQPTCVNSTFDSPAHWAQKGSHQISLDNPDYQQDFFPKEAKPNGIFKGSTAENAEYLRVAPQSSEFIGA
T4 sequence (P06241 whole entry, species assumed, the tested form may be a part): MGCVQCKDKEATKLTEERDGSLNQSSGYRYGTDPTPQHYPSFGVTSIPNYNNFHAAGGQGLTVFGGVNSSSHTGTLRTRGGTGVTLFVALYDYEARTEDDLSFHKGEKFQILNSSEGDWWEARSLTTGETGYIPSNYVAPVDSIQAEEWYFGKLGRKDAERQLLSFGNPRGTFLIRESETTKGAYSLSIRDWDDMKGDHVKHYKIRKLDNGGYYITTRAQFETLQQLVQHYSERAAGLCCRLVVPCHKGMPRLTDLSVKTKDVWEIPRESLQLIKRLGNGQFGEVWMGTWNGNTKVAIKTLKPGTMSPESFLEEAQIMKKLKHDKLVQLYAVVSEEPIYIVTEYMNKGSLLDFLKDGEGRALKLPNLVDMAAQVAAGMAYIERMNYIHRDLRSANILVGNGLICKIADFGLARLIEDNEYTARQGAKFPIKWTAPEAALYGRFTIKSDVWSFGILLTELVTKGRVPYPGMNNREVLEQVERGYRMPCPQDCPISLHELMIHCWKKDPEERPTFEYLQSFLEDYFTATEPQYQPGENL

| Compound | IC50 (Lck) [µM] | IC50 (Lyn) [µM] | IC50 (Src) [µM] | IC50 (Fyn) [µM] | IC50 (Zap-70) [µM] | IC50 (Itk) [µM] | IC50 (EGFR) [µM] | IC50 (ErbB2) [µM] | IC50 (Kdr) [µM] | IC50 (Flt-1) [µM] | IC50 (Tek) [µM] | IC50 (c-Met) [µM] | IC50 (AKT) [µM] | IC50 (IGFR-1) [µM] | IC50 (PDGFRB) [µM] | IC50 (Hck-1) [µM] | IC50 (ErbB4) [µM] | IC50 (Ret-1) [µM] | IC50 (FGFR1) [µM] |
| --- | --- | --- | --- | --- | --- | --- | --- | --- | --- | --- | --- | --- | --- | --- | --- | --- | --- | --- | --- |
| CC(C)Nc1ncccc1-c1ncnc(Nc2ccc(C(N)=O)cc2)n1 [Compound 1084] | < 1.14 | < 1.14 | > 12.9 | > 12.9 | > 12.9 | 6.87 to 10 | > 12.9 | > 12.9 | 1.14 to 6.87 | > 12.9 | > 12.9 | 6.87 to 10 | > 12.9 | > 12.9 | 1.14 to 6.87 | > 12.9 | > 12.9 | < 1.14 | > 12.9 |
| COc1cc(Nc2ncnc(-n3c(NCc4cccc(Br)c4)nc4ccccc43)n2)cc(OC)c1OC [Compound 946] | 0.711 to 4.27 | < 0.711 | > 8 | > 8 | > 8 | > 8 | 6.22 to 8 | > 8 | 0.711 to 4.27 | 0.711 to 4.27 | > 8 | 6.22 to 8 | > 8 | 4.27 to 6.22 | < 0.711 | > 8 | > 8 | 0.711 to 4.27 | < 0.711 |
| CCc1cccc(Nc2ncnc(-n3c(N)nc4ccccc43)n2)c1 [Compound 655] | 1.21 to 7.24 | 7.24 to 10.6 | 7.24 to 10.6 | > 13.6 | > 13.6 | 1.21 to 7.24 | 1.21 to 7.24 | 1.21 to 7.24 | < 1.21 | < 1.21 | 7.24 to 10.6 | 1.21 to 7.24 | > 13.6 | < 1.21 | 1.21 to 7.24 | > 13.6 | 7.24 to 10.6 | < 1.21 | 1.21 to 7.24 |
| COc1ccc(Nc2ncccc2-c2ncnc(Nc3cc(OC)c(OC)c(OC)c3)n2)c(C)c1 [Compound 1086] | 5.06 to 7.38 | > 9.48 | > 9.48 | > 9.48 | > 9.48 | > 9.48 | > 9.48 | 7.38 to 9.48 | < 0.843 | 5.06 to 7.38 | 7.38 to 9.48 | > 9.48 | > 9.48 | > 9.48 | > 9.48 | > 9.48 | > 9.48 | 7.38 to 9.48 | > 9.48 |
| COc1ccc(CNc2nc3ccccc3n2-c2ncnc(Nc3cc(OC)c(OC)c(OC)c3)n2)cc1 [Compound 1037] | > 8.76 | > 8.76 | > 8.76 | > 8.76 | > 8.76 | > 8.76 | > 8.76 | > 8.76 | < 0.779 | 4.67 to 6.82 | > 8.76 | > 8.76 | > 8.76 | > 8.76 | > 8.76 | > 8.76 | > 8.76 | 0.779 to 4.67 | 0.779 to 4.67 |
| COc1ccc(Nc2ncnc(-n3c(N)nc4ccccc43)n2)cc1 [Compound 656] | 1.2 to 7.2 | 7.2 to 10.5 | 7.2 to 10.5 | 10.5 to 13.5 | > 13.5 | 7.2 to 10.5 | 7.2 to 10.5 | 7.2 to 10.5 | < 1.2 | 1.2 to 7.2 | 1.2 to 7.2 | 1.2 to 7.2 | > 13.5 | < 1.2 | 1.2 to 7.2 | 7.2 to 10.5 | 7.2 to 10.5 | 1.2 to 7.2 | 1.2 to 7.2 |
| CCN(CC)CCOc1ccc(Nc2ncnc(-n3c(N)nc4ccccc43)n2)cc1OC [Compound 652] | < 0.892 | 0.892 to 5.35 | 0.892 to 5.35 | > 10 | > 10 | 0.892 to 5.35 | > 10 | 5.35 to 7.8 | < 0.892 | 0.892 to 5.35 | 0.892 to 5.35 | 0.892 to 5.35 | > 10 | < 0.892 | 0.892 to 5.35 | > 10 | > 10 | < 0.892 | < 0.892 |
